Tests used:
Type in all cases: physicochemical
[1] = Example 12 reactive solvent extraction, 90% Alamine 336/10% toluene, 25° C.; conditions: pH 2 to 3
Protocol: (§1) A variety of analytical methods can be employed to analyze the reactants and products produced using the present methods include HPLC, GC, ion selective electrodes, MS, NMR, etc. HPLC was used to measure glycolic acid and various related products. Briefly, samples are diluted with water (as needed to be within HPLC detection range) and mixed 1:1 with 0.2 M n-propanol in water (HPLC internal standard). HPLC Analytical Method: (BioRad HPX 87H ion exclusion column (BioRad, Hercules, Calif.), 300 mm×7.8 mm; 0.01 N H2SO4 mobile phase; 1.0 mL/min flow at 50° C.; 10 μL injection volume; RI detector and UV 210 nm, 20 min analysis time). HPLC Equipment: (Waters 2695 ‘Alliance’ Separations Module, 2410 Refractive Index Detector, 2487 Dual λ Absorbance Detector and Empower Pro Software (Waters Corp, Milford, Mass.).
Solvent Extraction Using Approximately 90% C8-C10 Trialkylamine in Combination with 10% Toluene at 25° C.
Into a 4-mL glass reactor equipped with magnetic stir bar was placed 1 mL of a mixed solvent containing 90% (volume/volume) Alamine® 336 (Cognis), 10% (volume/volume) toluene. The pH of an aqueous solution of ammonium glycolate (5 wt % to 40 wt %) was adjusted to pH 2 to 3 with concentrated sulfuric acid, then 1 mL of the resulting aqueous solution was added to the reactor. The resulting mixture was stirred for 30 minutes at 25° C.

[2] = Example 8 reactive solvent extraction, 90% Alamine 336/10% 1-octanol, 25° C.; conditions: pH 2 to 3
Protocol: as §1
Solvent Extraction Using Approximately 90% C8-C10 Trialkylamine in Combination with 10% 1-Octanol at 25° C.
Into a 4-mL glass reactor equipped with magnetic stir bar was placed 1 mL of a mixed solvent containing 90% (volume/volume) Alamine® 336 (Cognis), 10% (volume/volume) 1-octanol. The pH of an aqueous solution of ammonium glycolate (5 wt % to 40 wt %) was adjusted to pH 2 to 3 with concentrated sulfuric acid, then 1 mL of the resulting aqueous solution was added to the reactor. The resulting mixture was stirred for 30 minutes at 25° C.

[3] = Example 11 reactive solvent extraction, 70% Alamine 336/30% 1-octanol, 75° C.; conditions: pH 2 to 3
Protocol: as §1
Solvent Extraction Using Approximately 70% C8-C10 Trialkylamine in Combination with 30% 1-Octanol at 75° C.
Into a 4-mL glass reactor equipped with magnetic stir bar was placed 1 mL of a mixed solvent containing 70% (volume/volume) Alamine® 336 (Cognis), 30% (volume/volume) 1-octanol. The pH of an aqueous solution of ammonium glycolate (5 wt % to 40 wt %) was adjusted to pH 2 to 3 with concentrated sulfuric acid, then 1 mL of the resulting aqueous solution was added to the reactor. The resulting mixture was stirred for 30 minutes at 75° C.

[4] = Example 4 reactive solvent extraction, 90% Alamine 336/10% MIBK, 25° C.; conditions: pH 2 to 3
Protocol: as §1
Solvent Extraction Using Approximately 90% C8-C10 Trialkylamine in Combination with 10% Methyl Isobutyl Ketone at 25° C.
Into a 4-mL glass reactor equipped with magnetic stir bar was placed 1 mL of a mixed solvent containing 90% (volume/volume) Alamine® 336 (Cognis) and 10% (volume/volume) methyl isobutyl ketone (MIBK). The pH of an aqueous solution of ammonium glycolate (5 wt % to 40 wt %) was adjusted to pH 2 to 3 with concentrated sulfuric acid, then 1 mL of the resulting aqueous solution was added to the reactor. The resulting mixture was stirred for 30 minutes at 25° C.

[5] = Example 3 reactive solvent extraction, 70% Alamine 336/10% MIBK/20% kerosene, 75° C.; conditions: pH 2 to 3
Protocol: as §1
Solvent Extraction Using Approximately 70% C8-C10 Trialkylamine in Combination with 10% Methyl Isobutyl Ketone and 20% Kerosene at 75° C.
Into a 4-mL glass reactor equipped with magnetic stir bar was placed 1 mL of a mixed solvent containing 70% (volume/volume) Alamine® 336 (Cognis), 10% (volume/volume) methyl isobutyl ketone (MIBK) and 20% (volume/volume) kerosene. The pH of an aqueous solution of ammonium glycolate (5 wt % to 40 wt %) was adjusted to pH 2 to 3 with concentrated sulfuric acid, then 1 mL of the resulting aqueous solution was added to the reactor. The resulting mixture was stirred for 30 minutes at 75° C.

[6] = Example 22 back extraction using water from loaded solvent (70% trialkylamine/30% toluene), 140° C.; conditions: back extraction into deionized water, 70% C8-C10 trialkylamine/30% toluene, 40 psig nitrogen
Protocol: as §1
Back Extraction Using Water from a Loaded Solvent of Approximately 70% C8-C10 Trialkylamine in Combination with 30% Toluene
Into a 85-mL pressure reaction glass tube (pressure reaction vessel, from Andrews Glass Co.) equipped with magnetic stir bar and double dip tubes was placed 10 mL deionized water and 10 mL of the loaded solvent (see Example 16). The vessel was then closed, and the headspace purged with nitrogen. The resulting mixture was stirred for 60 minutes at 140° C. under 40 psig (˜275.8 kPa) nitrogen. The stirring was stopped and the two phases allowed to separate at 140° C., then the organic phase was sampled under pressure through the top dip tube into a Hoke cylinder, and aqueous phases was sampled under pressure through the bottom dip tube into another Hoke cylinder.

[7] = initial 3.6 wt % glycolic acid in aqueous phase
[8] = initial 8.5 wt % glycolic acid in aqueous phase
[9] = initial 12.1 wt % glycolic acid in aqueous phase
[10] = initial 16.1 wt % glycolic acid in aqueous phase
[11] = initial 20.6 wt % glycolic acid in aqueous phase
[12] = initial 25.1 wt % glycolic acid in aqueous phase
[13] = initial 29.1 wt % glycolic acid in aqueous phase
[14] = initial 32.8 wt % glycolic acid in aqueous phase

For `O=C(O)CO` [glycolic acid], which “Partition coefficient (wt % org./wt % aq.)” value [1, 7] is on record?
The value was 1.22.

And the “Partition coefficient (wt % org./wt % aq.)” value [1, 8]?
Its value is 1.41.

What about the “Partition coefficient (wt % org./wt % aq.)” value [1, 9] of the same molecule?
Its value is 1.46.

What about the “Partition coefficient (wt % org./wt % aq.)” value [1, 10] of the same molecule?
Its value is 1.23.

What about the “Partition coefficient (wt % org./wt % aq.)” value [1, 11] of the same molecule?
Its value is 1.20.

What about the “Partition coefficient (wt % org./wt % aq.)” value [1, 12] of the same molecule?
The value was 1.26.

And the “Partition coefficient (wt % org./wt % aq.)” value [1, 13]?
The value was 1.00.

And the “Partition coefficient (wt % org./wt % aq.)” value [1, 14]?
Its value is 0.86.

What about the “Partition coefficient (wt % org./wt % aq.)” value [2, 7] of the same molecule?
The value was 1.09.

And the “Partition coefficient (wt % org./wt % aq.)” value [2, 8]?
Its value is 1.03.

And the “Partition coefficient (wt % org./wt % aq.)” value [2, 9]?
Its value is 1.30.

And the “Partition coefficient (wt % org./wt % aq.)” value [2, 10]?
Its value is 1.20.

And the “Partition coefficient (wt % org./wt % aq.)” value [2, 11]?
Its value is 1.20.

And the “Partition coefficient (wt % org./wt % aq.)” value [2, 12]?
The value was 1.10.

And the “Partition coefficient (wt % org./wt % aq.)” value [2, 13]?
Its value is 0.99.

And the “Partition coefficient (wt % org./wt % aq.)” value [2, 14]?
Its value is 0.82.

And the “Partition coefficient (wt % org./wt % aq.)” value [3, 7]?
Its value is 0.69.

What about the “Partition coefficient (wt % org./wt % aq.)” value [3, 8] of the same molecule?
Its value is 0.74.

And the “Partition coefficient (wt % org./wt % aq.)” value [3, 9]?
The value was 0.64.

And the “Partition coefficient (wt % org./wt % aq.)” value [3, 10]?
Its value is 0.68.

What about the “Partition coefficient (wt % org./wt % aq.)” value [3, 11] of the same molecule?
The value was 0.62.

And the “Partition coefficient (wt % org./wt % aq.)” value [3, 12]?
The value was 0.61.

And the “Partition coefficient (wt % org./wt % aq.)” value [3, 13]?
Its value is 0.50.

And the “Partition coefficient (wt % org./wt % aq.)” value [3, 14]?
The value was 0.52.

And the “Partition coefficient (wt % org./wt % aq.)” value [4, 7]?
The value was 1.98.

What about the “Partition coefficient (wt % org./wt % aq.)” value [4, 8] of the same molecule?
The value was 1.57.

What about the “Partition coefficient (wt % org./wt % aq.)” value [4, 9] of the same molecule?
Its value is 1.38.

And the “Partition coefficient (wt % org./wt % aq.)” value [4, 10]?
Its value is 1.44.

What about the “Partition coefficient (wt % org./wt % aq.)” value [4, 11] of the same molecule?
The value was 1.13.

What about the “Partition coefficient (wt % org./wt % aq.)” value [4, 12] of the same molecule?
Its value is 1.19.

And the “Partition coefficient (wt % org./wt % aq.)” value [4, 13]?
The value was 1.14.

What about the “Partition coefficient (wt % org./wt % aq.)” value [4, 14] of the same molecule?
The value was 0.92.

And the “Partition coefficient (wt % org./wt % aq.)” value [5, 7]?
Its value is 0.16.

And the “Partition coefficient (wt % org./wt % aq.)” value [5, 8]?
Its value is 0.22.

And the “Partition coefficient (wt % org./wt % aq.)” value [5, 11]?
The value was 0.49.

What about the “Partition coefficient (wt % org./wt % aq.)” value [5, 12] of the same molecule?
Its value is 0.56.

What about the “Partition coefficient (wt % org./wt % aq.)” value [5, 13] of the same molecule?
The value was 0.54.

And the “Partition coefficient (wt % org./wt % aq.)” value [5, 14]?
Its value is 0.52.

What about the “Partition coefficient (wt % org./wt % aq.)” value ([6]; initial 3.7 wt % glycolic acid in loaded solvent) of the same molecule?
Its value is 0.26.

What about the “Partition coefficient (wt % org./wt % aq.)” value ([6]; initial 10.7 wt % glycolic acid in loaded solvent) of the same molecule?
Its value is 0.30.

What about the “Partition coefficient (wt % org./wt % aq.)” value ([6]; initial 14.2 wt % glycolic acid in loaded solvent) of the same molecule?
The value was 0.38.

What about the “Partition coefficient (wt % org./wt % aq.)” value ([6]; initial 15.7 wt % glycolic acid in loaded solvent) of the same molecule?
Its value is 0.28.
